These results are taken from paper PMC4076210, “Discovery of Novel AKT Inhibitors with Enhanced Anti-Tumor Effects in Combination with the MEK Inhibitor” (PLoS ONE, 2014).

What all share (experiment): Kinase panel
What all share (format): biochemical

In one test the target is T1, ULK2(h) (Homo sapiens, UniProt Q8IYT8).
T1 construct: purchased Millipore KinaseProfiler
T1 sequence (Q8IYT8 1-1036): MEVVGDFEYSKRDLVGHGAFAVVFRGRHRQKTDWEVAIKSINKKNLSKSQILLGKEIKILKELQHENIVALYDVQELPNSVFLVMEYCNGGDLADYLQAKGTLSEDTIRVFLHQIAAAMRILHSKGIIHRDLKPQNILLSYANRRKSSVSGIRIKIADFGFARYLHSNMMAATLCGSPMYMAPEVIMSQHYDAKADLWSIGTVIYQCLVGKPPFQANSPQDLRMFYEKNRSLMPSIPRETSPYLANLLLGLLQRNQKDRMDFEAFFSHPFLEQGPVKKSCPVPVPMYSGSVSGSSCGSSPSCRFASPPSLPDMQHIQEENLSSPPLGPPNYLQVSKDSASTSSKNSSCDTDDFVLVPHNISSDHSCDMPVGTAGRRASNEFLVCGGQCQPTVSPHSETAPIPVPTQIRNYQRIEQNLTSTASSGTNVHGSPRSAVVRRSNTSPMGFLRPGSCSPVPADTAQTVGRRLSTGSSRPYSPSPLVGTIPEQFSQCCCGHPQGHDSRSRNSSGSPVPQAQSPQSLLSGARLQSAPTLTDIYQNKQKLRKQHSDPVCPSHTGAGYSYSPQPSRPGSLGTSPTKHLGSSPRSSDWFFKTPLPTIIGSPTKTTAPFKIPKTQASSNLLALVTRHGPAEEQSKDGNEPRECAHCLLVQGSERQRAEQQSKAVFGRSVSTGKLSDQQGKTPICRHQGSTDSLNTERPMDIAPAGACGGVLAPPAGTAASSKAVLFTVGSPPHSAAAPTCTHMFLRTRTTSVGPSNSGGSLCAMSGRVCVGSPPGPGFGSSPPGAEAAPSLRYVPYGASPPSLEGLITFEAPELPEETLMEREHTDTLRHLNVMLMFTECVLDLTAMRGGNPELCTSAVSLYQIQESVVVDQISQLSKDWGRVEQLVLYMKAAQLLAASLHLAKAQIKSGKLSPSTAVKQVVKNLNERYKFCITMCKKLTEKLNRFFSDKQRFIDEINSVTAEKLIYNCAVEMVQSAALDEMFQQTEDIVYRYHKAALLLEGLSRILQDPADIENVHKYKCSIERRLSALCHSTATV

The target in the next test is T2, mTOR/FKBP12(h) (Homo sapiens, UniProt P42345).
T2 construct: purchased Millipore KinaseProfiler
T2 sequence (P42345 1362-2549 limits assumed): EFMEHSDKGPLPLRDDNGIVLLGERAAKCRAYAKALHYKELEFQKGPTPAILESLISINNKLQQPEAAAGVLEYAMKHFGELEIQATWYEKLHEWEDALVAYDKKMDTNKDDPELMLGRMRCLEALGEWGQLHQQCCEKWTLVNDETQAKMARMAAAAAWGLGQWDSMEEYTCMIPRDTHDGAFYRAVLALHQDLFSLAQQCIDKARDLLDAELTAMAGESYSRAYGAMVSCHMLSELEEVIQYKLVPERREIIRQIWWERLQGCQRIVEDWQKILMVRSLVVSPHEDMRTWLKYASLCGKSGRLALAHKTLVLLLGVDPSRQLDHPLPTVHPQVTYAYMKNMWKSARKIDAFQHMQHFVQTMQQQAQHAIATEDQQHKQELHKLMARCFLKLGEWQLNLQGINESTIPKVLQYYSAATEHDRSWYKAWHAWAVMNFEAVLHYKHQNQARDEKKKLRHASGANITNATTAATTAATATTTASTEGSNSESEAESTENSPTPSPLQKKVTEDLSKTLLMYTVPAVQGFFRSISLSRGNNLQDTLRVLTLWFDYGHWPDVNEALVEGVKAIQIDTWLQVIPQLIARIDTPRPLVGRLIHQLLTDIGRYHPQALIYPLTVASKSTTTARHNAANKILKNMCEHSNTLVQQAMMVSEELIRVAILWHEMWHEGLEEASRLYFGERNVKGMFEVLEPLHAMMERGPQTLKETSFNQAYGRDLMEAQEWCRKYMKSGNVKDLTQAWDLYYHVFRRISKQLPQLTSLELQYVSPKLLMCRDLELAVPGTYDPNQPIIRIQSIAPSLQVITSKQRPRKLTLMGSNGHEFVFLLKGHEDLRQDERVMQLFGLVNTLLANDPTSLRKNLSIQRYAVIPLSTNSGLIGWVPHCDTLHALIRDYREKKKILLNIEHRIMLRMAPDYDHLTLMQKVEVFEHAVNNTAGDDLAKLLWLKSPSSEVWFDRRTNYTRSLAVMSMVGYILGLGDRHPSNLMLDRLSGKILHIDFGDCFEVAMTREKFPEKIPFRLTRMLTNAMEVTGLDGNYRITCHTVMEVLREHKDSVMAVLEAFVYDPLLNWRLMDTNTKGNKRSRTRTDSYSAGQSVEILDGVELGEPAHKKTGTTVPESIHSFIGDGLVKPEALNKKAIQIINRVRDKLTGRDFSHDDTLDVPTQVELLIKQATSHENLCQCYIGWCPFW

For a further test, the target named is T3, ALK(h) (Homo sapiens, UniProt Q9UM73).
T3 construct: purchased Millipore KinaseProfiler
T3 sequence (Q9UM73 19-1620): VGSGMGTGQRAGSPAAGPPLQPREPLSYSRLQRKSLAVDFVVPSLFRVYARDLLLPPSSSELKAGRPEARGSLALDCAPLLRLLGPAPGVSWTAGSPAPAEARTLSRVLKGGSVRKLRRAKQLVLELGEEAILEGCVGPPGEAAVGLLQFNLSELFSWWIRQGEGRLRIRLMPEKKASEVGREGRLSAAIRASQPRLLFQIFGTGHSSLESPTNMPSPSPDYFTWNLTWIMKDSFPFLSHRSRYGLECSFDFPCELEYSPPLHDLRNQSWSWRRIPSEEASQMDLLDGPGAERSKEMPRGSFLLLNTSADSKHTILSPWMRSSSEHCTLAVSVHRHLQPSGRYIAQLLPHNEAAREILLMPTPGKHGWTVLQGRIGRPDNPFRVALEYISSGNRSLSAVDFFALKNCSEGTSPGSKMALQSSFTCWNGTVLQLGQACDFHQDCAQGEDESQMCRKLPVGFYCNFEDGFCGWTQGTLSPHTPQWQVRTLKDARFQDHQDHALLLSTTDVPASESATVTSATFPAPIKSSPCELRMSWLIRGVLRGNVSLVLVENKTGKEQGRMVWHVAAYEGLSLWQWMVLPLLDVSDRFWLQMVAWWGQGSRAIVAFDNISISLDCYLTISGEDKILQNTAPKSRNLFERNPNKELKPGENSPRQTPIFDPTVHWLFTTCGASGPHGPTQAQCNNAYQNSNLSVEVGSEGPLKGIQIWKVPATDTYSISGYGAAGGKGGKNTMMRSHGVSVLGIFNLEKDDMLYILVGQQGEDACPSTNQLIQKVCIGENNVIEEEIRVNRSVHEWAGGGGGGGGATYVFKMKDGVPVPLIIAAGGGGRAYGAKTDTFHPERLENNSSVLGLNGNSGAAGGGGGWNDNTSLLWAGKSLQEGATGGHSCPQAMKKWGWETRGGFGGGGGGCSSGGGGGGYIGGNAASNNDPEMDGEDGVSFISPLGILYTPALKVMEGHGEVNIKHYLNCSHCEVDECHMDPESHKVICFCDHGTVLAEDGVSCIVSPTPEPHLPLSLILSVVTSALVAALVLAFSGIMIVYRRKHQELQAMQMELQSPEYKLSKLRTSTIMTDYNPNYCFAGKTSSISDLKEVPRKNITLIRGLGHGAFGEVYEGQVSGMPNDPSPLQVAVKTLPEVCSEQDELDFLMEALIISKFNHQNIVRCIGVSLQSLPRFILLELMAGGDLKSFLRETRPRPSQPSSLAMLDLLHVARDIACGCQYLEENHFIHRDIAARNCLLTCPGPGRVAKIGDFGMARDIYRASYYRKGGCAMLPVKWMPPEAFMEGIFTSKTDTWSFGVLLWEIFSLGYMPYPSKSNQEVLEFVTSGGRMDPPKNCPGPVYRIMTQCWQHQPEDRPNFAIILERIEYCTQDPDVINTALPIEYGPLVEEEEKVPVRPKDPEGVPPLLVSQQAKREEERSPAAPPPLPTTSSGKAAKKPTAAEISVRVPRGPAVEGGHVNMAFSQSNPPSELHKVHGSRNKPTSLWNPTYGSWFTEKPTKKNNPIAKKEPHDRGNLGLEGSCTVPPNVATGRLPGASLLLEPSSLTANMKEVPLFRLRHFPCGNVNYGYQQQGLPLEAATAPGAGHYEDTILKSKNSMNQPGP

The next test deals with T4, SGK(h) (Homo sapiens, UniProt O00141).
T4 construct: purchased Millipore KinaseProfiler
T4 sequence (O00141 1-431): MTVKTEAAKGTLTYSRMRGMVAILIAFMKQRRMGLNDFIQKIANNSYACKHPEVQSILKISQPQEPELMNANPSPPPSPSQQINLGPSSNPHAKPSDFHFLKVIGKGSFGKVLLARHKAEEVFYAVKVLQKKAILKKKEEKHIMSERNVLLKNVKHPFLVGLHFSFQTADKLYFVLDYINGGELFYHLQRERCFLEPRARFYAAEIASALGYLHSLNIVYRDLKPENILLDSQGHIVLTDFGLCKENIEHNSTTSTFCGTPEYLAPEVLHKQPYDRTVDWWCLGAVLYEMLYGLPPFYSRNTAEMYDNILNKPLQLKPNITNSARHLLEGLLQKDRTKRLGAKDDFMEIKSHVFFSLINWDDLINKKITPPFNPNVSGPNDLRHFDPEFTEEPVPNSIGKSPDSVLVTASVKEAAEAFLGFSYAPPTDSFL

The target in the next test is T5, CDK2/cyclinA(h) (Homo sapiens, UniProt P24941).
T5 construct: purchased Millipore KinaseProfiler

A further test concerns the target T6, JAK3(h) (Homo sapiens, UniProt P52333).
T6 construct: purchased Millipore KinaseProfiler
T6 sequence (P52333 1-1124): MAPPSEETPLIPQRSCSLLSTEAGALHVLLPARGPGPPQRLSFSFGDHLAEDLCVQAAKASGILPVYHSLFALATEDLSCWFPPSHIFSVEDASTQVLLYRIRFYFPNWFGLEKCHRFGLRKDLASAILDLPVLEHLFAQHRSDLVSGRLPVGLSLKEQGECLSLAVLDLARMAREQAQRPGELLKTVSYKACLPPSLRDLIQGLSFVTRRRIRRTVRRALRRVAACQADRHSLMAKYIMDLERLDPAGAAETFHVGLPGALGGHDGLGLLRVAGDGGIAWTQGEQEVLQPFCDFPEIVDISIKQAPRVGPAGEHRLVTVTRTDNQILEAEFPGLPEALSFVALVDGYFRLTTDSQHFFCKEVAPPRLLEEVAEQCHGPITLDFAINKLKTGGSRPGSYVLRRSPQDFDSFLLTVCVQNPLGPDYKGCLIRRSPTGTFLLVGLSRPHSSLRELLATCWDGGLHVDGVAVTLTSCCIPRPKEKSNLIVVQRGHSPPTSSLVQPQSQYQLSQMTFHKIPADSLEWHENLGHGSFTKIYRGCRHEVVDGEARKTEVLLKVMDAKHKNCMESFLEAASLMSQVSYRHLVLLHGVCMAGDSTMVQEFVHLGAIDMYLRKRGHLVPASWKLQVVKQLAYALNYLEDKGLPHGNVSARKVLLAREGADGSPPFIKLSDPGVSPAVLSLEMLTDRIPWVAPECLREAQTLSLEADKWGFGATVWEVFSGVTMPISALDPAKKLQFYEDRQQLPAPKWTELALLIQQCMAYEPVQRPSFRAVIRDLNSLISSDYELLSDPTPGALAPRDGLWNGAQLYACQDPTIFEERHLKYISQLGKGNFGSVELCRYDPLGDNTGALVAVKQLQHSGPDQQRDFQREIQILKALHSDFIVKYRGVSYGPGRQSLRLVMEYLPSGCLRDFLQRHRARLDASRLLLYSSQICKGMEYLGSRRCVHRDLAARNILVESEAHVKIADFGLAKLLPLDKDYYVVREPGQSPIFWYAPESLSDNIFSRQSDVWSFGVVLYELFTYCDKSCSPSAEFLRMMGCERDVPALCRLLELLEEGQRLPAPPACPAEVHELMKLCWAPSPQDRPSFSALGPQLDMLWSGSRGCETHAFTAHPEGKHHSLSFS

The next test has as its target T7, FGFR1(h) (Homo sapiens, UniProt P11362).
T7 construct: purchased Millipore KinaseProfiler

A further test deals with T8, cKit(V560G)(h) (Homo sapiens, UniProt P10721, V560G).
T8 construct: purchased Millipore KinaseProfiler
T8 sequence (P10721 26-976 V560G): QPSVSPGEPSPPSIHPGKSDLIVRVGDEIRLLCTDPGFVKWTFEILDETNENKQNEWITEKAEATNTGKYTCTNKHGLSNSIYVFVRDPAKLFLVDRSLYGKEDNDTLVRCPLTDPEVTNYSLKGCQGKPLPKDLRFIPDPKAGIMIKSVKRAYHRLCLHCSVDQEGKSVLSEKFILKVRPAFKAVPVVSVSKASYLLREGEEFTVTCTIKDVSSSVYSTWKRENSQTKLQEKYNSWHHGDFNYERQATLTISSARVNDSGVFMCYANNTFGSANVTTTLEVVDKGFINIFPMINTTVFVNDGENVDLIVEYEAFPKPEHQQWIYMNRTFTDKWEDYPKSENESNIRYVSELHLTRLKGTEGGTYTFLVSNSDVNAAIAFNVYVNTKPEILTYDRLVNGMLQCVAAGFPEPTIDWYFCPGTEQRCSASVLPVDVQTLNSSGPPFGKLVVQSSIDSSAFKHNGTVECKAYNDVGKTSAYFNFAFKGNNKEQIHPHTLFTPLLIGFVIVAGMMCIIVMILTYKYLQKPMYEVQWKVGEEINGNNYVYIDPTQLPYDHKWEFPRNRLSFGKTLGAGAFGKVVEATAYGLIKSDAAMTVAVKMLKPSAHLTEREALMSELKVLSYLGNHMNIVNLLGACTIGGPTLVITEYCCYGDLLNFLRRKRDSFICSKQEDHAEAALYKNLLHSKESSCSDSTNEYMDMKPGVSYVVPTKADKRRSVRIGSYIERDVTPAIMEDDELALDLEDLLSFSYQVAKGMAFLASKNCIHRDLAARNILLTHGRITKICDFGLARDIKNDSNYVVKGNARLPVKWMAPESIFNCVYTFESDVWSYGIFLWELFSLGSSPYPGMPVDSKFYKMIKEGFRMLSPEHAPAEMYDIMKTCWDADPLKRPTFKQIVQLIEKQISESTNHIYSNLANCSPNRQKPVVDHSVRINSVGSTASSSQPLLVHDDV

What is called inhibition is the relative decrease from the control value, in per cent.

Like-named read-outs stand apart in the source and are kept apart here.

T7 sequence (P11362 22-822): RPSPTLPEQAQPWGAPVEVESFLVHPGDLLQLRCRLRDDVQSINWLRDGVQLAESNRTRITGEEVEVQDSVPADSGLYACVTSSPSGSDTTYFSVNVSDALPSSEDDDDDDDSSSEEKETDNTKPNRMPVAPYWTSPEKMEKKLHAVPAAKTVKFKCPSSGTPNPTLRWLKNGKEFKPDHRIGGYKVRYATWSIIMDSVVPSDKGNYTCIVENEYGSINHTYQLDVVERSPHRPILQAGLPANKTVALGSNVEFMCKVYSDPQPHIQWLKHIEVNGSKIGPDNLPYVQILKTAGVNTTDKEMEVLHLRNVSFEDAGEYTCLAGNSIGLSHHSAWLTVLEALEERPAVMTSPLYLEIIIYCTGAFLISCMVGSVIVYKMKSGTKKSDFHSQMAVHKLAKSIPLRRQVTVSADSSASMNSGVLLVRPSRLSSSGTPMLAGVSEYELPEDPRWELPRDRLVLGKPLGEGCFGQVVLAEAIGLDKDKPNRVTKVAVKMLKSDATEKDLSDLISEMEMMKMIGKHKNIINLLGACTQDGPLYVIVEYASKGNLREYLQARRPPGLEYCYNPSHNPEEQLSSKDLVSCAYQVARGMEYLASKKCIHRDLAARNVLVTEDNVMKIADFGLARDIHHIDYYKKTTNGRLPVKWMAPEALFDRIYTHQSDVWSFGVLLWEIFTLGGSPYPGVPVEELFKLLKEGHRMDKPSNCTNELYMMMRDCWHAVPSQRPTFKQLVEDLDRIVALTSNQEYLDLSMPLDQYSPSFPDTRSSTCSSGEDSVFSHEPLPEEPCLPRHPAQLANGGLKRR

For the compound `Cn1ncc(Cl)c1-c1cc(C(=O)N[C@H](CN)Cc2cccc(F)c2)sc1Cl` [GSK2110183], the inhibition at 0.5 µM is 0% at ULK2(h); 3% against mTOR/FKBP12(h); -22% against ALK(h); 36% on SGK(h); -10% against CDK2/cyclinA(h); 6% against JAK3(h). Moreover, the inhibition at 0.5 µM is -8% on FGFR1(h) and -6% at cKit(V560G)(h). In addition, the inhibition at 10 µM against ULK2(h) is 15%; at mTOR/FKBP12(h), 5%; against ALK(h), 0%; against SGK(h), 87%; at CDK2/cyclinA(h), 1%; against JAK3(h), -3%. For the same compound, the inhibition at 10 µM on FGFR1(h) is -5%; on cKit(V560G)(h), 4%.
Take `Cn1ncc(Cl)c1-c1cc(C(=O)N[C@H](CN)Cc2ccc(F)c(F)c2)oc1Cl` [GSK2141795]: the inhibition at 0.5 µM at ULK2(h) (0.5 µM, read-out: % Inhibition) was 6%; at mTOR/FKBP12(h) (0.5 µM, read-out: % Inhibition) it was -19%; at ALK(h) (0.5 µM, read-out: % Inhibition) it was -8%; at SGK(h) (0.5 µM, read-out: % Inhibition), 47%; on CDK2/cyclinA(h) (0.5 µM, read-out: % Inhibition) it was 1%; at JAK3(h) (0.5 µM, read-out: % Inhibition), -6%. In addition, the inhibition at 0.5 µM at FGFR1(h) (0.5 µM, read-out: % Inhibition) was -15%; on cKit(V560G)(h) (0.5 µM, read-out: % Inhibition) it was -25%. The inhibition at 10 µM at ULK2(h) (10 µM, read-out: % Inhibition) was 26%; at mTOR/FKBP12(h) (10 µM, read-out: % Inhibition), -21%; at ALK(h) (10 µM, read-out: % Inhibition), -4%; at SGK(h) (10 µM, read-out: % Inhibition) it was 90%; at CDK2/cyclinA(h) (10 µM, read-out: % Inhibition), 20%; on JAK3(h) (10 µM, read-out: % Inhibition), -14%. For the same compound, the inhibition at 10 µM at FGFR1(h) (10 µM, read-out: % Inhibition) is -6%; at cKit(V560G)(h) (10 µM, read-out: % Inhibition), 16%.
